Values of other authors in EP4759311A1, “TRPM8 INHIBITORS FOR USE IN THE PREVENTION OR TREATMENT OF JOINT DAMAGE, JOINT DEGENERATION AND/OR JOINT INFLAMMATION CAUSED BY OSTEOARTHRITIS” (Dompé farmaceutici SpA, priority 2024, dated 2026).
pIC50: −log10 of the molar value.

Target: TRPM8 (Homo sapiens, UniProt Q7Z2W7)
Conditions: TRPM8 inhibitor; no method given

Chain of TRPM8 (Q7Z2W7 whole entry, species assumed): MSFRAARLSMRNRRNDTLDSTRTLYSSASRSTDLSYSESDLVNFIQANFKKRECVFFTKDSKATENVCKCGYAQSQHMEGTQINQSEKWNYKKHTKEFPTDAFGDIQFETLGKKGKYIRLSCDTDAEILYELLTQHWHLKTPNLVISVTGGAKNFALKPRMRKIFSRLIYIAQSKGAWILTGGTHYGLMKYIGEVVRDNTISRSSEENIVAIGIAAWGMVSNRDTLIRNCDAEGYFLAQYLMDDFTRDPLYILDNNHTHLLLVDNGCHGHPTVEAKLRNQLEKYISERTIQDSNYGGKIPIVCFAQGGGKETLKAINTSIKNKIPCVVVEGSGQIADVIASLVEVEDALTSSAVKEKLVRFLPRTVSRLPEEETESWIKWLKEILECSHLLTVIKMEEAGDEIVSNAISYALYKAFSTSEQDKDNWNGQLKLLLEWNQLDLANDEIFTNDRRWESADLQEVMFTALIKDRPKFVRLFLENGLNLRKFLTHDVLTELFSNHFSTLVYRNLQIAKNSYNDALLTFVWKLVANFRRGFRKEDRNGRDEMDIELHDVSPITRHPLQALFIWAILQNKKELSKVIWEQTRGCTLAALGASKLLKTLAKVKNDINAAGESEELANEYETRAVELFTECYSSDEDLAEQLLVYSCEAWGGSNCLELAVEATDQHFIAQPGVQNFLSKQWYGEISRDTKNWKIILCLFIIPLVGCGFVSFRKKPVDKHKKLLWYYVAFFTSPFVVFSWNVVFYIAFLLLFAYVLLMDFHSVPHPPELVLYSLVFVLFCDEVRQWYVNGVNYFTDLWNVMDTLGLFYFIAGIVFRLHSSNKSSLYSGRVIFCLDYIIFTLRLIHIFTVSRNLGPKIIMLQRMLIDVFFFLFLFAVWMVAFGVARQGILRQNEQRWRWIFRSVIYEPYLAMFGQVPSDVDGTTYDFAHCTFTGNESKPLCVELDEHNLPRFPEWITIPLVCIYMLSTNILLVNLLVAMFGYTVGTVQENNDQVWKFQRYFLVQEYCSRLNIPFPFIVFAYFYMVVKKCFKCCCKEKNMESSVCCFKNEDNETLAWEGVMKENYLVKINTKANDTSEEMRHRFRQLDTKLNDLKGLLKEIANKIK

Row | pIC50 | Compound
1 | 8.28 | O=C(O)c1ccc(S(=O)(=O)N(Cc2ccc(OC(F)(F)F)cc2)c2ncc(C(F)(F)F)cc2Cl)cc1 [RQ-00203078, 4-[[[3-Chloro-5-(trifluoromethyl)-2-pyridinyl][[4-(trifluoromethoxy)phenyl]methyl]amino]sulfonyl]benzoic acid]
2 | 9.70 | COC(=O)[C@H](Cc1c[nH]c2ccccc12)N(Cc1ccccc1)Cc1ccccc1 [TRPM8 antagonist 2, N,N-Bis(phenylmethyl)-L-tryptophan methyl ester]
